The values that follow come from patent publication US20040115706A1, “High-throughput methods for identifying quadruplex forming nucleic acids and modulators thereof” (priority 2002, published 2004).

What all share (assay type): binding
The nature of data set [1]: Identification of quadruplex forming nucleic acids by probing with NMM. Particulars: for capability of forming a quadruplex structure: 0.1 to 10 μM test nucleic acid probed with 3 μM NMM, FIG. 2C; for interaction with NMM (quadruplex forming profile): 3 μM NMM, FIG. 2E. On the procedure:
(§1) A typical assay was carried out in 100 μl of 20 mM HEPES buffer, pH 7.0, 140 mM NaCl, and 100 mM KCl. Fifty μl of quadruplex nucleic acid or a nucleic acid not capable of forming a quadruplex were added in 96-well plate. 50 μl of signal molecule was then added for a final concentration of 3 μM. N-methylmesoporphyrin IX (NMM) and meso-tetrakis(N-methyl-4-pyridyl)porphine (TMPyP4) were tested as signal molecules. Fluorescence was measured at an excitation wavelength of 420 nm and an emission wavelength of 660 nm for each of these signal molecules using a FluoStar 2000 fluorometer (BMG Labtechnologies, Durham, N.C.). NMM and TMPyP4 were obtained from Frontier Scientific Inc, Logan, Utah. Fluorescence was plotted as a function of concentration of nucleic acid added to the system at a constant 3 μM concentration of NMM (FIG. 2A) or TMPyP4 (FIG. 2B).
In this study, several oligonucleotides were analyzed to determine which of them were capable of forming quadruplex structures. The oligonucleotides in Table 2 were synthesized by Applied Biosystems (Foster City, Calif.).
FIG. 2E depicts quadruplex forming profiles for oligonucleotides QB-1 and QB-11 to QB-25.

The subject of data set [2] is quadruplex nucleic acid QB-1. Description: Signal molecule fluorescence assay with quadruplex nucleic acid. Particulars: for fluorescent signal / interaction with quadruplex nucleic acid QB-1: 3 μM signal molecule, excitation 420 nm, emission 660 nm, FIG. 2A/2B. As for the experimental part: as §1, with “Fifty” for “A typical assay was carried out in 100 μl of 20 mM HEPES buffer, pH 7.0, 140 mM NaCl, and 100 mM KCl. Fifty”

The test system of data set [3] is non-quadruplex nucleic acid QB-2. As to the kind of experiment: Signal molecule fluorescence assay with nucleic acid not capable of forming a quadruplex. Particulars: 3 μM signal molecule; excitation 420 nm, emission 660 nm; FIG. 2A/2B. On the procedure:
as §1

The test system of data set [4] is ss DNA QB-1. As to the kind of experiment: Specificity of signal molecules for single-stranded DNA. Particulars: 3 μM NMM (FIG. 4A) or 3 μM EB (FIG. 4B). As for the experimental part:
(§2) The specificity of signal molecules NMM and ethidium bromide was assessed with respect to single-stranded (ss) DNA and double-stranded (ds) DNA. Fluorescence was plotted as a function of the concentration of ss DNA QB-1 or ds DNAs pGL3E or pGL3E/myc, under conditions of 3 μM NMM (FIG. 4A) or 3 μM EB (FIG. 4B). Fluorescence of NMM was measured as described in Example 1. Fluorescence of EB was measured at an excitation wavelength of 485 nm and an emission wavelength 590 nm using a FluoStar 2000 fluorometer (BMG Labtechnologies, Durham, N.C.). Ethidium bromide (EB) was obtained from Calbiochem, San Diego, Calif.

Data set [5] relates to ds DNAs pGL3E or pGL3E/myc. As to the kind of experiment: Specificity of signal molecules for double-stranded DNA. Particulars: 3 μM NMM (FIG. 4A) or 3 μM EB (FIG. 4B). On the procedure: as §2
pGL3 was purchased from Promega, Madison, Wis. pGL3/myc included the nuclease hypersensitive element (NHE) MYC8 fragment from the proximal region of human c-MYC. pGL3/myc was constructed by cloning the MYC8 fragment from human genomic DNA (Promega, Madison, Wis.) and inserting that fragment into the multiple cloning site of the pGL3 vector via Nhe I and Bgl II digestion and ligation. The MYC8 fragment (840 bp) was cloned from human genomic DNA using two primer oligonucleotides. The sense strand primer oligonucleotide for the c-MYC regulatory region had the nucleotide sequence 5′-[…]-3′ (SEQ ID NO: 36; Nhe I site is underlined), which corresponded to site 1993 in the sense strand GenBank sequence. […]

The test system of data set [6] is ds DNA pGL3. Description: EB competition with NMM or TMPyP4 for ds DNA. The following applies: 6.5 μg/μl pGL3; presence or absence of EB; FIG. 4C. As for the experimental part: Next, the effect of EB competition with NMM or TMPyP4 for ds DNA was assessed. The assay was carried out as described in the previous paragraph, with 6.5 μg/μl pGL3, and the results were graphically compiled in FIG. 4C.
pGL3 was purchased from Promega, Madison, Wis. pGL3/myc included the nuclease hypersensitive element (NHE) MYC8 fragment from the proximal region of human c-MYC. pGL3/myc was constructed by cloning the MYC8 fragment from human genomic DNA (Promega, Madison, Wis.) and inserting that fragment into the multiple cloning site of the pGL3 vector via Nhe I and Bgl II digestion and ligation. The MYC8 fragment (840 bp) was cloned from human genomic DNA using two primer oligonucleotides. The sense strand primer oligonucleotide for the c-MYC regulatory region had the nucleotide sequence 5′-[…]-3′ (SEQ ID NO: 36; Nhe I site is underlined), which corresponded to site 1993 in the sense strand GenBank sequence. The antisense primer had the nucleotide sequence 5′-[…]-3′ (SEQ ID NO: 37; Bgl II site is underlined), which corresponded to site 2833 in the sense strand GenBank sequence. The Genbank sequence was the Homo sapiens MYC gene, c-myc proto-oncogene and ORF1, Length=10996 (http address: www.ncbi.nlm.nih.gov/entrez/query.fcgi?cmd=Retrieve&db=nucleotide&list_uids=188965&dopt=GenBank). The construct was confirmed by sequencing.

The subject of data set [7] is quadruplex nucleic acid QB-1. As to the kind of experiment: Competition of test molecules with NMM for quadruplex nucleic acid QB-1. Particulars: QB-1 5 μM, NMM 3 μM; FIG. 3. As for the experimental part:
Test molecules were mixed with the quadruplex nucleic acid QB-1 in a 96-well plate and fluorescence backgrounds were monitored under the conditions specified in Example 1. NMM was then added to wells in the 96-well plate to a final concentration of 3 μM. Fluorescence of NMM was measured at an excitation wavelength of 420 nm and an emission wavelength of 660 nm using a FluoStar 2000 fluorometer (BMG Labtechnologies, Durham, N.C.). Maximum fluorescent signals for NMM were assessed in the absence of the test molecules. Fluorescence was plotted as a function of the concentration of three test molecules with constant concentrations of QB-1 (5 μM) and NMM (3 μM)(FIG. 3). The test compounds were telomestatin, QQ28, and serinodisaphyrin (see, e.g., Shin-ya et al., J. Am. Chem. Soc. 123:1262 (2001); Duan et al., Mol. Cancer Therapeutics 1:103 (2001)).

As to “QB-10: 5′-GGTTGGTGTGGTTGG-3′, SEQ ID NO 20, intramolecular edge, or chair structure (DNA, backbone not given here)”, in data set [1], the “capability of forming a quadruplex structure” value (“capability” for short) was “capable of forming a quadruplex structure”.

As to “QB-1: 5′-AGGGTGGGGAGGGTGGGGAA-3′, SEQ ID NO 17, c-MYC (DNA, backbone not given here)”, in data set [1], the “capability” value is “capable of forming a quadruplex structure”.

“QB-9: 5′-GGGGTTTTGGGG-3′, SEQ ID NO 19, dimers for quadruplex of basket or crossover structure (DNA, backbone not given here)”: the “capability” value in data set [1] is “capable of forming a quadruplex structure”.

`CCC1=C(C)c2cc3[nH]c(cc4nc(cc5c(CCC(=O)O)c(C)c(cc1n2)n5C)C(CCC(=O)O)=C4C)c(C)c3CC` [NMM, N-methylmesoporphyrin IX]: the “fluorescent signal / interaction with quadruplex nucleic acid QB-1” value in data set [2] is given as “interacted with quadruplex nucleic acid QB-1”. In data set [2] (without the addition of potassium ions, FIG. 2A), the “stabilization of quadruplex structure” value is “could stabilize quadruplex structure without the addition of potassium ions”. In addition, the “fluorescent signal / interaction with non-quadruplex nucleic acid QB-2” value in data set [3] was “did not interact appreciably”. Also, in data set [4], the “interaction with single-stranded DNA” value was “interacted with ssDNA”. The “interaction with double-stranded DNA” value in data set [5] was “did not interact appreciably with ds DNA”. The “interaction with ds DNA” value in data set [6] is recorded as “did not interact with ds DNA”.

As to “QB-20: 5′-GTGGTGGGTGGGTGGGT-3′, SEQ ID NO 30, T30177 (DNA, backbone not given here)”, in data set [1], the “interaction with NMM (quadruplex forming profile)” value (shortened to “interaction with NMM”) is recorded as “interacted most significantly”.

As to serinodisaphyrin, in data set [7], the “affinity of interaction with the quadruplex DNA (competition with NMM)” value is “intermediate affinity” and the “identification as quadruplex interacting molecule” value was “identified as quadruplex interacting molecules”.

With “QB-25: 5′-CCTTCCCCACCCTCCCCACCCTCCCCA-3′, SEQ ID NO 35, c-MYC (DNA, backbone and methylation of C not given here)”, the “interaction with NMM” value in data set [1] is on record as “did not appreciably interact with NMM”.

Turning to `C[n+]1ccc(-c2c3nc(c(-c4cc[n+](C)cc4)c4ccc([nH]4)c(-c4cc[n+](C)cc4)c4nc(c(-c5cc[n+](C)cc5)c5ccc2[nH]5)C=C4)C=C3)cc1` [TMPyP4, meso-tetrakis(N-methyl-4-pyridyl)porphine], the “change of emitted signal with increasing quadruplex nucleic acid concentrations” value in data set [2] (3 μM TMPyP4, FIG. 2B, likely due to quenching) is given as “decreased with increasing quadruplex nucleic acid concentrations”. In addition, the “fluorescent signal / interaction with quadruplex nucleic acid QB-1” value in data set [2] is on record as “varied significantly”. Moreover, the “fluorescent signal / interaction with non-quadruplex nucleic acid QB-2” value in data set [3] is listed as “varied significantly”. The “interaction with ds DNA” value in data set [6] is listed as “did interact with ds DNA”.

In the case of “QB-23: 5′-CGCTTGATGAGTCAGCCGGAA-3′, SEQ ID NO 33, AP-1 (DNA, backbone and methylation of C not given here)”, the “interaction with NMM” value in data set [1] is “did not appreciably interact with NMM”.
